# Key:
# [1] = tested on: QHJ-I01 human iPS cell; assay: Corin-positive ratio by flow cytometry with anti-Corin antibody on Day 12 after preconditioning of iPS cells in medium for maintaining undifferentiated state; assay type: cell-based; details: for Corin-positive ratio as compared with the control: summary of Table 1
# Description: QHJ-I01, which is a human iPS cell, has been produced by introducing of Oct3/4, Sox2, KIf4, L-MYC, LIN28, and a dominant-negative form of p53 (Okita, K., et al., Stem Cells, 31, 458-66 (2013); WO2013/176233) into human PBMC by an episomal vector. The cells were received from Professor Yamanaka of Kyoto University, et al.
# The iPS cells were cultured according to the method described by Miyazaki T, et al., Nat Commun. 3: 1236, 2012. Specifically, maintenance culture was performed in a medium for maintaining undifferentiated state containing FGF2 (bFGF) on a 6-well plate coated with Laminin-511 E8.
# 24 hours before the start of differentiation induction by exchange with a differentiation medium, the medium was exchanged with StemFit AK03N (Ajinomoto Healthy Supply Co., Inc.), which was a medium for maintaining undifferentiated state containing SAG (Enzo Life Sciences, Inc., 300 nM), an SHH signal stimulant, to obtain a cell population comprising iPS cells.
# The cell population comprising iPS cells after culturing for 24 hours in the presence of SAG as described above was dissociated using TrypLE CTS (Life Technologies), and the cells were inoculated on a 6-well plate coated with Laminin-511 E8 (iMatrix-511, Nippi, Inc.) prepared separately, in an amount of 5×10^6 cells per well. The medium was replaced with a differentiation medium [a basal medium A [GMEM (Invitrogen) supplemented with 8% KSR (Invitrogen), 1 mM Sodium pyruvate (Invitrogen), 0.1 mM MEM nonessential amino acid (Invitrogen), and 0.1 mM 2-Mercaptoethanol (WAKO)] containing 10 μM Y-27632 (WAKO), 0.1 μM LDN 193189 (Stemgent, Inc.), and 0.5 μM A83-01 (WAKO)]. On the next day (Day 1), the medium was replaced with Basal Medium A supplemented with 0.1 μM LDN193189, 0.5 μM A83-01, 2 μM Purmorphamine (WAKO), and 100 ng/mL FGF8 (WAKO). Two days later (Day 3), the medium was replaced with Basal Medium A supplemented with 0.1 μM LDN193189, 0.5 μM A83-01, 2 μM Purmorphamine, 100 ng/mL FGF8, and 3 μM CHIR99021 (WAKO). Four days later (Day 7), the medium was replaced with Basal Medium A supplemented with 0.1 μM LDN193189 and 3 μM CHIR99021. During the above period, the medium was replaced once a day. A flow cytometry analysis using an anti-Corin antibody was performed on the 12th day of the start of differentiation induction (Day 12) (FIG. 1).
# An anti-Corin antibody was prepared by the following method. First, from the Corin gene of Macaca fascicularis, a gene sequence encoding a part of the extracellular domain (79th-453rd amino acids) was introduced into 293E cells, and the cells were then allowed to express the extracellular-domain fragment of Corin protein, followed by collecting the protein. Mice were immunized with the recovered protein, and lymphocytes were then extracted and fused with myeloma cells. From the cell population after the fusion, a clone having reactivity with Corin was selected. The culture supernatant of the clone was used after attaching a fluorescent label as the anti-Corin monoclonal antibody.
# Five days after the culture in Basal Medium A supplemented with 0.1 μM of LDN193189 and 3 μM CHIR99021, namely on the 12th day of the start of differentiation induction (Day 12), the cells were dissociated using TrypLE CTS, and suspended in Ca^2+Mg^2+-free HBSS (Invitrogen) supplemented with 2% FBS, 10 μM Y-27632 (WAKO), 20 mM D-glucose, and 50 μg/mL penicillin/streptomycin. The anti-Corin antibody was added to the suspension, and the resulting mixture was incubated at 4° C. for 20 minutes, the cells were sorted using FACS (BD) to collect Corin-positive cells, and the cell number was counted.
# Similar to Example 1, experiments in which the concentration of SAG added was changed, and experiments in which A83-01 or LDN 193189 was added at the same time with SAG, were conducted, and the Corin-positive ratio were measured.
# [2] = tested on: model rat of Parkinson's disease (6-OHDA uni-laterally administered rat); assay: Cell transplantation into striatum of Parkinson's disease model rat, graft staining with TH and HuNu after 4 weeks; assay type: in vivo; details: for TH-ratio with respect to HuNu-positive cells as 100%: graft of cells cultured in the presence of SAG (300 nM)
# Description: In this case, the medium was replaced in half every 3 days.
# A plurality of cell aggregates containing 4×10^5 cells obtained as described above were suspended in 2 μL of physiological saline, and injected into the striatum of a model rat of Parkinson's disease (6-OHDA uni-laterally administered rat) using a 22 gauge injection needle, and the appearance of the graft after 4 weeks was observed (FIG. 5).
# [3] = tested on: LPF 11 human iPS cell; assay: Corin-positive ratio on Day 12, iPS cells generated by another method; assay type: cell-based; details: SAG 300 nM preconditioning vs absence of SAG, FIG. 4
# From the text: LPF 11, a human iPS cell, has been established by introducing Oct3/4, Sox2, KIf4, and L-MYC into human PBMC by a Sendai virus vector (Cytotune 2.0 L, produced by ID Pharma Co., Ltd.), and culturing the same by the method according to the protocol published by Kyoto University (Establishment, maintenance culture of human iPS cells; CiRA Ff-iPSC_protocol_JP_v140310, //www.cira.kyoto-u.ac.jp/j/research/protocol.html) using StemFit medium (produced by Ajinomoto Healthy Supply Co., Inc. Inc.), and Laminin-511 E8 (produced by Nippi, Inc.).
# Using this iPS cell, culturing and differentiation induction were carried out in the same manner as in Example 1 and the percentage of the number of Corin-positive cells with respect to the total cell number was measured on the 12th day (Day 12) using an anti-Corin antibody.
Structure (SMILES),Corin-Positive Rate (%) ([1]; A83-01 (500 nM) alone),Corin-positive ratio as compared with the control [1],Corin-Positive Rate (%) ([1]; LDN193189 (100 nM) alone),"ratio of the number of TH-positive cells to the number of HuNu-positive cells, SAG-treated cell graft vs non-treated cell graft ([2]; 4 weeks after grafting)",TH-ratio with respect to HuNu-positive cells as 100% ([2]; 4 weeks) [%],"TH-ratio with respect to HuNu-positive cells as 100% ([2]; 4 weeks after grafting, average) [%]","TH-ratio with respect to HuNu-positive cells as 100% ([2]; 4 weeks, individual (2)) [%]","percentage of Corin-positive cells ([1]; SAG 300 nM for 24 hours before differentiation induction vs absence of SAG, FIG. 2)",Corin-Positive Rate (%) ([1]; SAG (10 nM) added to medium for maintaining undifferentiated state before differentiation induction),Corin-Positive Rate (%) ([1]; SAG (300 nM)),percentage of Corin-positive cells [3]
"Cc1cccc(-c2nn(C(=S)Nc3ccccc3)cc2-c2ccnc3ccccc23)n1 [A83-01, 3-(6-methyl-2-pyridinyl)-N-phenyl-4-(4-quinolinyl)-1H-pyrazole-1-carbothioamide]",12.4,no effect,,,,,,,,,
c1ccc2c(-c3cnn4cc(-c5ccc(N6CCNCC6)cc5)cnc34)ccnc2c1 [LDN193189],,no effect,12.6,,,,,,,,
CNC1CCC(N(Cc2cccc(-c3ccncc3)c2)C(=O)c2sc3ccccc3c2Cl)CC1 (stereo not shown) [SAG],,improves depending on the concentration of SAG added,,no difference,6.1,9.24,12.37,increased,22.7,32.1,increased

# From patent publication US12516286B2, “Method for producing dopaminergic neuron progenitor cell” (KYOTO UNIVERSITY, priority 2016, dated 2026)
